Source: patent EP4656194A1, “COMPOSITION FOR PREVENTING OR TREATING POST-TRAUMATIC STRESS DISORDER, COMPRISING PHOSPHODIESTERASE TYPE 5 INHIBITOR AS ACTIVE INGREDIENT” (Aribio Co., Ltd, priority 2023, dated 2024)

The compounds below were run on context-specific fear memory (assay: Passive avoidance test). Details: 12 MPK p.o. once daily, after 15 doses, followed by electric shock; male ICR mice.
Format: in vivo
Description: (§1) Twenty-eight male ICR mice, 5 weeks old, weighing approximately 27-30 g, were used. The animals were housed in a controlled environment with a temperature of 26.8 ± 0.5°C, relative humidity of 48.4 ± 1.7%, and lighting from 07:00 to 19:00. They were fed a standard diet (AIN-93G diet) and given free access to drinking water. After 7 days of acclimation and habituation, healthy animals were selected for the experiments.
(§2) Mirodenafil was dissolved in 10 mL of distilled water to prepare a 12 mg/kg (MPK) solution. Sildenafil and tadalafil were similarly prepared at 12 MPK each.
(§3) • 1) Control group (n=7): p.o. administration of distilled water (D.W.) • 2) Experimental group 1 (n=7): p.o. administration of mirodenafil (12 MPK) • 3) Experimental group 2 (n=7): p.o. administration of sildenafil (12 MPK) • 4) Experimental group 3 (n=7): p.o. administration of tadalafil (12 MPK)
(§4) Following 7 days of acclimation, the control group received distilled water orally once daily for 15 days, and the experimental groups received their respective drugs orally once daily for 15 days.
The passive avoidance step-through apparatus was illuminated in the bright chamber at 50% lightness. Mice were placed inside and allowed to move freely between the bright and dark chambers for 5 minutes. After 5 minutes, accommodation was terminated, and mice rested in their home cages.
Mice that completed accommodation were placed in the bright chamber under the same lighting conditions. When the mouse fully entered the dark chamber (all four paws on the floor), an electric shock (0.4 mA, 2 seconds, repeated twice with a 2-second interval) was delivered (maximum latency: 65 seconds, single session). […]
Mice that completed training were placed again in the bright chamber under the same conditions. The latency to enter the dark chamber (all four paws touching the floor) was recorded without shock (maximum latency: 300 seconds). […]
(§5) Data were expressed as mean ± standard error of the mean (SEM). Statistical significance was assessed by T-test with thresholds of P < 0.01 or *0.01 < P < 0.05. […]
CCCOc1ccc(S(=O)(=O)N2CCN(CCO)CC2)cc1-c1nc2c(CCC)cn(CC)c2c(=O)[nH]1 [mirodenafil] was tested, and the “decrease of latency time compared to the control” value (“decrease of latency time” below) was 73.5%.
With CCCc1nn(C)c2c(=O)[nH]c(-c3cc(S(=O)(=O)N4CCN(C)CC4)ccc3OCC)nc12 [sildenafil] the “decrease of latency time” value was 55.5%.
With CN1CC(=O)N2[C@H](c3ccc4c(c3)OCO4)c3[nH]c4ccccc4c3C[C@@H]2C1=O [tadalafil] the “decrease of latency time” value was 63.2%.

The compounds below were run on object recognition and memory (assay: Novel object recognition test). Details: 12 MPK p.o. once daily, eight days after drug administration; control group 49.0%.
Format: in vivo, male ICR mice
Description: as §1, §2, §3, §4
Mice were placed in the center of a rat cage and allowed to explore freely for 5 minutes (accommodation). Afterward, mice rested in their home cages.
Following accommodation, two identical objects (Object A and Object B) of the same color, shape, and size were placed at fixed intervals in the cage. […]
Twenty-four hours after Training 1, mice were reintroduced to the cage with the same objects (A and B) spaced similarly. Exploration time of each object was recorded for 5 minutes. […]
Twenty-four hours after Training 2, mice were introduced to the cage containing one familiar object (A) and one novel object (C) differing in color, shape, or size. Exploration time was recorded for 5 minutes. The percentage of time spent exploring each object was calculated using the following formula: (Formula to calculate % exploration time for objects) • i. […]
as §5
In the case of CCCOc1ccc(S(=O)(=O)N2CCN(CCO)CC2)cc1-c1nc2c(CCC)cn(CC)c2c(=O)[nH]1 [mirodenafil], the “exploration of novel objects” value is reported as 53.7%.
For CCCc1nn(C)c2c(=O)[nH]c(-c3cc(S(=O)(=O)N4CCN(C)CC4)ccc3OCC)nc12 [sildenafil], the “exploration of novel objects” value was 57.9%.
In the case of CN1CC(=O)N2[C@H](c3ccc4c(c3)OCO4)c3[nH]c4ccccc4c3C[C@@H]2C1=O [tadalafil], the “exploration of novel objects” value is reported as 57.0%.

What follows are compounds tested on spatial recognition and memory (assay: Y-maze test). Details: 12 MPK p.o. once daily, ten days after drug administration; control 61.8%.
Format: in vivo, male ICR mice
Description: as §1, §2, §3, §4
Mice were placed at the center of a Y-maze and allowed to explore for 8 minutes. Entries were recorded when all four paws fully entered an arm. The maze was cleaned with 70% alcohol between tests. Spontaneous alternation behavior was analyzed using the Yamada statistical method. An alternation was counted when the mouse consecutively entered three different arms. The percentage of spontaneous alternation was calculated as (number of alternations / total arm entries) × 100. • iii. Recording data(ex): BCABCBABCBCABBCACBACCABCABCACBCABC • iv. [formula]
Data were expressed as mean ± standard error of the mean (SEM). Statistical significance was assessed by T-test with thresholds of P < 0.01 or *0.01 < P < 0.05. Data analysis and plotting were performed using Prism 8 software.
Compound CCCOc1ccc(S(=O)(=O)N2CCN(CCO)CC2)cc1-c1nc2c(CCC)cn(CC)c2c(=O)[nH]1 [mirodenafil] has a spontaneous alternation rates of 58.4%.
With CCCc1nn(C)c2c(=O)[nH]c(-c3cc(S(=O)(=O)N4CCN(C)CC4)ccc3OCC)nc12 [sildenafil] the spontaneous alternation rates was 60.7%.
For CN1CC(=O)N2[C@H](c3ccc4c(c3)OCO4)c3[nH]c4ccccc4c3C[C@@H]2C1=O [tadalafil], the spontaneous alternation rates was 59.6%.
